From US20250064699A1, “CHLORHEXIDINE GLUCONATE-ISOPROPYL ALCOHOL WET WIPE PRODUCT AND PREPARATION METHOD THEREOF” (Dukal, LLC, priority 2021, published 2025)

Assay: Stability testing: contents of chlorhexidine gluconate (liquid chromatography) and isopropyl alcohol (gas chromatography) in the wet wipe, long-term experiment
Type: physicochemical
Experimental: The test was performed by chromatography. The content of chlorhexidine gluconate in the 2% chlorhexidine gluconate-isopropyl alcohol solution and the wet wipe was quantitatively detected by liquid chromatography. The content of isopropyl alcohol in the wet wipe was quantitatively detected by gas chromatography. In this test, the contents of chlorhexidine gluconate and isopropyl alcohol were used as evaluation indexes. The contents of chlorhexidine gluconate and isopropyl alcohol were measured by a long-term experiment. Relative standard deviation (RSD) was used to determine the stability of the contents of chlorhexidine gluconate and isopropyl alcohol in the chlorhexidine gluconate-isopropyl alcohol wet wipe. The contents were respectively measured at Month 0, Month 1, Month 3, Month 6, Month 9, Month 12, Month 18 and Month 24. Based on the content at Month 0 (100%), the ratio of the content at the subsequent time points to the content at Month 0 was calculated respectively, as shown in Table 1.

| ratio of the content to the content at Month 0 (Month 0 (set as 100%)) | ratio of the content to the content at Month 0 (Month 3) | ratio of the content to the content at Month 0 (Month 6) | ratio of the content to the content at Month 0 (Month 9) | ratio of the content to the content at Month 0 (Month 12) | ratio of the content to the content at Month 0 (Month 18) | ratio of the content to the content at Month 0 (Month 24) | SMILES |
| --- | --- | --- | --- | --- | --- | --- | --- |
| 100% | 100% | 100% | 100% | 100% | 100% | 106.2%^ | N=C(NCCCCCCNC(=N)NC(=N)Nc1ccc(Cl)cc1)NC(=N)Nc1ccc(Cl)cc1.O=C(O)[C@H](O)[C@@H](O)[C@H](O)[C@H](O)CO.O=C(O)[C@H](O)[C@@H](O)[C@H](O)[C@H](O)CO [Chlorhexidine gluconate] |
| 100% | 97.5% | 100.8% | 100% | 99.2% | 100.8% | 102.5% | CC(C)O [Isopropyl alcohol] |
